± gives the uncertainty stated by the source.
Experiment: xn = mol fraction of the nth substance listed

N#C[C-](C#N)C#N.OCCC[n+]1ccccc1 + c1ccsc1
viscosity [mPa·s], 101 kPa
Conditions	x1 = 0.4088	x1 = 0.505	x1 = 0.5955	x1 = 0.7045	x1 = 0.8231	x1 = 0.9377	x1 = 1
293.15 K	17.5 ± 1.8	31.5 ± 3.2	48.6 ± 4.9	69.3 ± 7	94.1 ± 9.7	115 ± 12	126 ± 13
298.15 K	14.4 ± 1.4	25.1 ± 2.5	36.6 ± 3.7	52 ± 5.2	68.9 ± 7	85.4 ± 8.7	92.5 ± 9.5
303.15 K	12 ± 1.2	20.4 ± 2.1	29.3 ± 2.9	40 ± 4	52.7 ± 5.3	64.4 ± 6.5	69.5 ± 7.1
308.15 K	10.2 ± 1	16.9 ± 1.7	24.1 ± 2.4	32.4 ± 3.3	42.1 ± 4.3	49.9 ± 5	53.8 ± 5.4
313.15 K	8.69 ± 0.87	14.3 ± 1.4	19.8 ± 2	26.4 ± 2.7	33.5 ± 3.4	39.5 ± 4	42.5 ± 4.3
318.15 K	7.53 ± 0.76	12.2 ± 1.2	16.9 ± 1.7	22.1 ± 2.2	27.4 ± 2.8	32.2 ± 3.3	34.6 ± 3.5
323.15 K	6.58 ± 0.66	10.5 ± 1.1	14.2 ± 1.4	18.3 ± 1.8	22.4 ± 2.3	26.2 ± 2.7	28.1 ± 2.8
328.15 K	5.8 ± 0.58	9.03 ± 0.91	12 ± 1.2	15.4 ± 1.6	18.8 ± 1.9	21.8 ± 2.2	23.4 ± 2.4
333.15 K	5.15 ± 0.52	7.96 ± 0.8	10.5 ± 1.1	13.3 ± 1.3	16.1 ± 1.6	18.5 ± 1.9	19.8 ± 2
338.15 K	4.62 ± 0.46	7.12 ± 0.72	9.24 ± 0.93	11.5 ± 1.2	13.8 ± 1.4	15.9 ± 1.6	16.9 ± 1.7
343.15 K	4.16 ± 0.42	6.33 ± 0.64	8.11 ± 0.82	10 ± 1	11.9 ± 1.2	13.6 ± 1.4	14.5 ± 1.5
348.15 K	3.96 ± 0.4	5.89 ± 0.59	7.4 ± 0.75	9.06 ± 0.91	10.7 ± 1.1	12.3 ± 1.2	13.1 ± 1.3

O=S(=O)([N-]S(=O)(=O)C(F)(F)F)C(F)(F)F.[Li+] + CC[n+]1ccn(C)c1.O=S(=O)([O-])C(F)(F)F
electrical conductivity [S/m], 101 kPa
Conditions	x1 = 0.007746	x1 = 0.01537	x2 = 0.9697	x2 = 0.9746
288.15 K	0.587 ± 0.059	0.557 ± 0.056	–	0.538 ± 0.054
298.15 K	0.844 ± 0.085	0.823 ± 0.083	0.778 ± 0.078	0.785 ± 0.079
333.15 K	2.14 ± 0.21	2.13 ± 0.21	2.04 ± 0.2	2.04 ± 0.2

OCCO + CC[n+]1ccn(C)c1.O=S(=O)([O-])C(F)(F)F
100 kPa, x1 = 1
Conditions	viscosity [mPa·s]
308.15 K	11.16 ± 0.61
318.15 K	7.91 ± 0.6

CCCCn1cc[n+](C)c1C.O=S(=O)([N-]S(=O)(=O)C(F)(F)F)C(F)(F)F + COC(=O)OC
viscosity [mPa·s], 101.3 kPa
Conditions	288.15 K	293.15 K	298.15 K	303.15 K	308.15 K	313.15 K
x1 = 0.003134	0.698 ± 0.015	0.653 ± 0.014	0.611 ± 0.013	0.575 ± 0.013	0.541 ± 0.012	0.511 ± 0.011
x1 = 0.003617	0.704 ± 0.015	0.658 ± 0.014	0.615 ± 0.013	0.579 ± 0.013	0.544 ± 0.012	0.513 ± 0.011
x1 = 0.004671	0.717 ± 0.016	0.669 ± 0.015	0.626 ± 0.014	0.588 ± 0.013	0.553 ± 0.012	0.522 ± 0.011
x1 = 0.005144	0.722 ± 0.016	0.674 ± 0.015	0.63 ± 0.014	0.592 ± 0.013	0.557 ± 0.012	0.525 ± 0.011
x1 = 0.007528	0.753 ± 0.016	0.701 ± 0.015	0.655 ± 0.014	0.614 ± 0.013	0.578 ± 0.013	0.544 ± 0.012
x1 = 0.008467	0.763 ± 0.017	0.711 ± 0.016	0.664 ± 0.015	0.622 ± 0.014	0.585 ± 0.013	0.551 ± 0.012
x1 = 0.01016	0.786 ± 0.017	0.731 ± 0.016	0.682 ± 0.015	0.639 ± 0.014	0.6 ± 0.013	0.564 ± 0.012
x1 = 0.01046	0.789 ± 0.017	0.734 ± 0.016	0.685 ± 0.015	0.641 ± 0.014	0.602 ± 0.013	0.566 ± 0.012
x1 = 0.01168	0.805 ± 0.018	0.748 ± 0.016	0.697 ± 0.015	0.653 ± 0.014	0.612 ± 0.013	0.577 ± 0.013
x1 = 0.01411	0.833 ± 0.018	0.773 ± 0.017	0.721 ± 0.016	0.674 ± 0.015	0.632 ± 0.014	0.597 ± 0.013
x1 = 0.01541	0.85 ± 0.019	0.788 ± 0.017	0.734 ± 0.016	0.685 ± 0.015	0.643 ± 0.014	0.604 ± 0.013
x1 = 0.01579	0.854 ± 0.019	0.791 ± 0.017	0.738 ± 0.016	0.688 ± 0.015	0.645 ± 0.014	0.606 ± 0.013
x1 = 0.01626	0.86 ± 0.019	0.798 ± 0.017	0.743 ± 0.016	0.693 ± 0.015	0.651 ± 0.014	0.61 ± 0.013
x1 = 0.01704	0.87 ± 0.019	0.807 ± 0.018	0.751 ± 0.016	0.7 ± 0.015	0.657 ± 0.014	0.616 ± 0.013
x1 = 0.01948	0.898 ± 0.02	0.832 ± 0.018	0.773 ± 0.017	0.722 ± 0.016	0.675 ± 0.015	0.634 ± 0.014
x1 = 0.01969	0.901 ± 0.02	0.834 ± 0.018	0.775 ± 0.017	0.723 ± 0.016	0.677 ± 0.015	0.635 ± 0.014
x1 = 0.02378	0.947 ± 0.021	0.876 ± 0.019	0.813 ± 0.018	0.758 ± 0.017	0.709 ± 0.015	0.665 ± 0.015
x1 = 0.02412	0.949 ± 0.021	0.878 ± 0.019	0.816 ± 0.018	0.76 ± 0.017	0.711 ± 0.016	0.667 ± 0.015
x1 = 0.02675	0.977 ± 0.021	0.903 ± 0.02	0.838 ± 0.018	0.781 ± 0.017	0.731 ± 0.016	0.684 ± 0.015
x1 = 0.02717	0.98 ± 0.021	0.907 ± 0.02	0.842 ± 0.018	0.784 ± 0.017	0.734 ± 0.016	0.688 ± 0.015
x1 = 0.03309	1.044 ± 0.023	0.964 ± 0.021	0.894 ± 0.02	0.833 ± 0.018	0.778 ± 0.017	0.729 ± 0.016
x1 = 0.03594	1.073 ± 0.023	0.99 ± 0.022	0.918 ± 0.02	0.855 ± 0.019	0.798 ± 0.017	0.748 ± 0.016
x1 = 0.03715	1.086 ± 0.024	1.002 ± 0.022	0.929 ± 0.02	0.864 ± 0.019	0.807 ± 0.018	0.756 ± 0.017
x1 = 0.0405	1.117 ± 0.024	1.031 ± 0.023	0.957 ± 0.021	0.89 ± 0.019	0.83 ± 0.018	0.777 ± 0.017
x1 = 0.04889	1.211 ± 0.026	1.117 ± 0.024	1.034 ± 0.023	0.96 ± 0.021	0.895 ± 0.02	0.837 ± 0.018

— the CheMixHub ionic liquid set
